Like-named read-outs stand apart in the source and are kept apart here.
What was measured:
hGPR35 [1] = target: T1, hGPR35 (Homo sapiens, UniProt Q9HC97); assay: DMR antagonism (desensitization) assay in CHO-GPR35 cells, zaprinast challenge; format: cell-based; conditions: for GPR35 receptor activity (result in words): CHO-GPR35 cells, desensitization when stimulated by agonist zaprinast
T1 construct: expressed in transfected cells
Experimental: (§1) CHO-GPR35 cells were the same as our previously reported. CHO-GPR35 cells were cultured in an F12 medium supplemented with 10% FBS, penicillin (50 μg/ml), streptomycin (100 μg/ml) and zeocin (200 μg/ml) at 37°C under 5% CO2. HEK293 cells were purchased from the National Collection of Authenticated Cell Cultures (Shanghai, China) and cultured in DMEM medium supplemented with 10% FBS, penicillin (50 μg/ml) and streptomycin (100 μg/ml) and at 37°C under 5% CO2.
(§2) When the cells approached 90% confluence, they were seeded in 384-well biosensor plates with a density of 1.5 × 10^4 CHO-GPR35 or 2.5 × 10^4 HEK293-GLP-1R cells/well and cultured for 24 h. The culture medium in the 384-well biosensor plates was replaced with 30 μl of Hank’s balanced salt solution (1 × HBSS) and then further incubated inside the system for 1 h before measurement. For the dynamic mass redistribution (DMR) agonism assay, a 2-min baseline was first established, followed by adding compounds using the multi-channel pipette, and the compound-triggered DMR responses were recorded for approximately 1 h. […] For DMR antagonism assay, cells were initially treated with either an antagonist or compound for 1 h in GPR35 and 90 min in GLP-1R assays, respectively. […] All DMR responses were background-corrected.

hGPR35 [2] = target: T1, hGPR35; assay: DMR agonism assay in CHO-GPR35 cells; format: cell-based
Experimental: as §1, §2

T1 sequence (Q9HC97 whole entry): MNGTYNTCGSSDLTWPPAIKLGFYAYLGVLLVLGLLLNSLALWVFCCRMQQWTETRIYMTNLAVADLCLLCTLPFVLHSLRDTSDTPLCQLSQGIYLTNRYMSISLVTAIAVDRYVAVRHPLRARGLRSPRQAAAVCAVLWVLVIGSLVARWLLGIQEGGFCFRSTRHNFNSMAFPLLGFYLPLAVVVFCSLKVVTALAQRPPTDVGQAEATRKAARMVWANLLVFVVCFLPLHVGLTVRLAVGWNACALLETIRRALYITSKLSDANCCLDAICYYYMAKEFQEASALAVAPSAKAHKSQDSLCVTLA

## CC(C)NC(=O)c1cccc(-c2noc(CCc3c[nH]c4ccccc34)n2)c1 [F545-1970]
hGPR35 [1]
  GPR35 receptor activity (result in words): GPR35 receptor antagonistic activity, with relatively weak activity
hGPR35 [1]; read-out: IC50 (hGPR35, DMR desensitization)
  IC50: 38.8 µM
hGPR35 [2]
  compound-triggered DMR signal in CHO-GPR35 cells: do not show a significant increase in DMR signal

## COCC12CCN(c3ccc(C#N)c(C(F)(F)F)c3)CC1CN(C(=O)CCc1ccccc1)C2 (stereo not drawn) [S948-0241]
hGPR35 [1]
  IC50: 67.9 µM
  GPR35 receptor activity (result in words): GPR35 receptor antagonistic activity, with relatively weak activity
hGPR35 [2]
  compound-triggered DMR signal in CHO-GPR35 cells: do not show a significant increase in DMR signal

Reference: PMC11167311, “Revolutionizing GPCR–ligand predictions: DeepGPCR with experimental validation for high-precision drug discovery” (Briefings in Bioinformatics, 2024)
